{
  "source": "patent US20060194815A1",
  "about": "“Methods and compositions for modulating serum cortisol levels” (priority 2003, published 2006)",
  "key": {"[1]": {"tested_on": "Y1 mouse adrenal tumor cells", "experiment": "dbcAMP-induced 20á-hydroxyprogesterone synthesis in Y1 cells (RIA)", "type": "cell-based", "method": "(§1) Culture media were then changed and cells were stimulated with 1 mM dbcAMP and the treatment for 24 to 48 hours. […] The synthesis of 20-OH progesterone and progesterone in Y1 and MA-10 cell media respectively were measured by RIA (Brown et al., 1992). H295R human adrenal tumor cells were seeded in 48-well plates at 10^5 cells/well and incubated for 24 hours. […] At the end of the incubation time period, cells were treated with 1 mM dbcAMP for 48 hours. Cortisol levels in the media were determined by radioimmunoassay as previously described (Amri et al., 1996)."}, "HMG-CoA reductase mRNA": {"tested_on": "HMG-CoA reductase mRNA", "experiment": "HMG-CoA reductase mRNA expression by Q-PCR in UT-1 cells", "type": "cell-based, Chinese hamster", "conditions": "dbcAMP induced", "method": "After treatment, cells were stimulated with 1 mM dbcAMP for 24 hours. At the end of the incubation, total cell RNA was extracted using. RNA STAT-60 (Tel-Test Inc, Friendswood, Tex.) according to the manufacturer's instructions. HMG-CoA reductase mRNA was quantified by Q-PCR using the ABI Prism 7700 sequence detection system (Perlin-Elmer/Applied Biosystems, Foster City, Calif.). RT reaction was performed using TaqMan® Reverse Transcription Reagents with 1 g total RNA and random hexamers as primers for each reaction according to the manufacturer's instructions. For quantifying mouse HMG-CoA reductase mRNA with Q-PCR, the primers were designed according to GenBank Accession Number BC 019782 using PE/AB Primer Express software, which is specifically designed for the selection of primers and probes. The forward primer was 5′-[…]-3′ (22 nucleotides) and reverse primer was 5′-[…]-3′ (23 nucleotides), respectively. The primers were synthesized by Bio-Synthesis Inc. (Lewisville, Tex.). Reactions were performed in a reaction mixture consisting of a 20 l volume solution containing 10 l SYBR® Green PCR Master Mix and 1 l primers mix (5 M each) with 2 l cDNA."}, "[2]": {"tested_on": "MA-10 mouse Leydig tumor cells", "experiment": "MTT cell viability, MA-10 cells", "type": "cell-based", "method": "(§2) Cell viability at the end of the incubation protocol described above was assessed using the mitochondrial integrity 3-(4,5-dimethylthiazol-2-yl)-2,5-diphenyl tetrazolium bromide (MTT) assay (Trevigen, Gaithersburg, Md.). Briefly, 10 l of the MTT solution were added to the cells in 100 l medium. After an incubation period of 4 hours, 100 l of detergent were added and cells were incubated overnight at 37° C. Formazan blue formation was quantified at 600 nm and 690 nm using the Victor quantitative detection spectrophotometer (EGG-Wallac, Gaithersburg, Md.) and the results expressed as (OD600-OD690)."}, "cytochrome P-450SCC": {"molecular_target": "T1, cytochrome P-450SCC (Mus musculus, UniProt Q9QZ82)", "T1 construct": "endogenous in cells; host or cells: Y1 mouse adrenal tumor cells", "T1 sequence (Q9QZ82 37-526)": "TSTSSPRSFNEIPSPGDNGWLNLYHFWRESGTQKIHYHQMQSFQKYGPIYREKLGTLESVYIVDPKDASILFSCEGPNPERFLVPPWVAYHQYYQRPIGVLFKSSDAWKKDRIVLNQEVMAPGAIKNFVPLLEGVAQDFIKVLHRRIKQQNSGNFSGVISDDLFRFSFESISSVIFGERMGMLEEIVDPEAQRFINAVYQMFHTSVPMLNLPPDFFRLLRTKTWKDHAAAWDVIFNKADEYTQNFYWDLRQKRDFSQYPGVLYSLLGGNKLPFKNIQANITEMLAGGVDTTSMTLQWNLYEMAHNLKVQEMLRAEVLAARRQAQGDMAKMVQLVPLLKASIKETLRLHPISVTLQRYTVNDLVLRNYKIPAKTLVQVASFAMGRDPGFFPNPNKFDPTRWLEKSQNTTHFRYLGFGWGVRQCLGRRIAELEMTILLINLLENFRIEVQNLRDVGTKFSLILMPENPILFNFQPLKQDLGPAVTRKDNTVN", "experiment": "22R-hydroxycholesterol-induced 20-OH progesterone formation (P-450SCC activity) in Y1 cells", "type": "cell-based", "method": "as §1"}, "[3]": {"tested_on": "H295R human adrenal tumor cells", "experiment": "MTT cell viability / mitochondrial function, H295R cells", "type": "cell-based", "conditions": "H295R cells exposed to dbcAMP", "method": "as §2"}, "[4]": {"tested_on": "H295R human adrenal tumor cells", "experiment": "dbcAMP-induced cortisol synthesis in H295R cells (RIA)", "type": "cell-based", "method": "as §1"}, "[5]": {"tested_on": "MA-10 mouse Leydig tumor cells", "experiment": "dbcAMP-induced progesterone synthesis in MA-10 cells (RIA)", "type": "cell-based", "method": "as §1"}},
  "note": "“Also recorded” adds a separate entry of the source.",
  "data": [
    {"smiles": "CCN(CC)CCOC(=O)c1ccc(N)cc1", "note": "[procaine]", "values": [
      {"measurement": "dbcAMP-induced 20á-hydroxyprogesterone production", "setting": "[1]; Y1 cells, 1 mM dbcAMP, increasing concentrations", "value": "decreased in a dose-dependent manner"},
      {"measurement": "basal steroid formation by Y1 cells", "setting": "[1]; no dbcAMP stimulus", "value": "without affecting"},
      {"measurement": "inhibition of HMG-CoA reductase mRNA expression", "setting": "HMG-CoA reductase mRNA", "value": "minor and not significant"},
      {"measurement": "cell viability (MTT assay)", "setting": "[2]", "value": "did not affect"},
      {"measurement": "effect of 22R-hydroxycholesterol on steroidogenesis", "setting": "cytochrome P-450SCC", "value": "did not inhibit; also recorded: did not affect"},
      {"measurement": "dbcAMP-induced change of mitochondrial function (MTT)", "setting": "[3]", "value": "reversed the effect of dbcAMP on mitochondrial function"},
      {"measurement": "dbcAMP-induced change of mitochondrial function (MTT)", "setting": "[3]; listed as Procaine", "value": "protected against the dbc-AMP-induced change of mitochondrial function"},
      {"measurement": "dbcAMP-stimulated cortisol production", "setting": "[4]; H295R cells, 1 mM dbcAMP", "value": "inhibited the dbcAMP-stimulated cortisol production in a dose-dependent manner"},
      {"measurement": "basal cortisol production", "setting": "[4]; H295R cells, no dbcAMP", "value": "without effecting basal cortisol production"},
      {"measurement": "sensitivity of human adrenal tumor cells versus mouse adrenal cells", "setting": "[4]; H295R versus Y1", "value": "less sensitive"},
      {"measurement": "dbcAMP-induced progesterone synthesis", "setting": "[5]", "value": "did not affect"}
    ]}
  ]
}
